The results in this text go back to patent US20240190860A1, “8-CYCLO-SUBSTITUTED QUINAZOLINE DERIVATIVES AS LPA RECEPTOR 2 INHIBITORS” (CHIESI FARMACEUTICI S.p.A., priority 2021, published 2024).

The target of the test is T1, human recombinant LPA2 expressed in CHO cells (Homo sapiens, UniProt Q9HBW0).
T1 construct: expressed in transfected cells; host or cells: CHO cells (CHO-hLPA2 cell line)
In words: FLIPR calcium mobilization assay, LPA2 antagonism in CHO-hLPA2 cells. It is filed as cell-based. The settings on record: CHO-hLPA2 cells, inhibition of LPA EC80 Ca2+ response, 30 min pre-incubation; read-out: LPA2 IC50. As to the method:
The effectiveness of compounds of the present invention as LPA2 antagonist can be determined at the human recombinant LPA2 expressed in CHO cells, using a FLIPR assay in 384 well format.
CHO-hLPA2 cell lines are cultured in a humidified incubator at 5% C02 in DMEM/F-12 (1:1) MIXTURE with 2 mM Glutamax, supplemented with 10% of Foetal Bovine Serum, 1 mM Sodium Pyruvate, 11 mM Hepes and 1× Penicillin/Streptomycin. CHO hLPA2 cells are seeded into black walled clear-bottom 384-well plates (#781091, Greiner Bio-One GmbH) at a density of 7,500 cells per well in 50 μl culture media and grown overnight in a 37° C. humidified CO2-incubator. Serial dilutions (1:3 or 1:4, 11 points CRC) of compounds are performed in 100% DMSO at 200× the final concentration. The compounds are diluted 1:50 prior to the experiment with Assay Buffer (20 mM HEPES, 145 mM NaCl, 5 mM KCl, 5.5 mM glucose, 1 mM MgCl2 and 2 mM CaCl2, pH 7.4 containing 0.01% Pluronic F-127) to obtain a solution corresponding to […] the final concentration in the assay (4×, 2% DMSO). The final concentration of DMSO in the assay will be 0.5% in each well. Medium is removed by aspiration and cells are then incubated with 30 μl of a loading solution containing 5 μM of the cytoplasmic Ca2+ indicator Cal-520 AM in Assay Buffer containing 2.5 mM probenecid for 30 min at 37° C. incubator (cell loading). The loaded cell plates are transferred into the FLIPR instrument and calcium responses are monitored during the on-line addition protocols. For testing of compounds, after the cell loading, 10 μl/well of 4× antagonists' solution was added onto the cells. After 30 min pre-incubation (at 37° C.), 10 μl/well of 5× concentrated LPA EC80 was added and Ca2+ mobilization responses was followed during the on-line addition protocol. Intracellular peak fluorescence values subtracted by baseline fluorescence are exported and analysed to determine IC50 values, respectively. The calcium response is expressed as percentage of the maximal inhibition of the EC80 agonist response.
The raw data (peak height expressed as relative fluorescence units) are normalized and transformed into “percent of inhibition”. Curve fitting and pIC50 (−LogIC50) estimations are carried out using a four-parameter logistic model using XLfit Software.

In general, IC50 refers to the point on the concentration scale where inhibition reaches its midpoint.

Some results are limits rather than exact numbers.

T1 sequence (Q9HBW0 whole entry): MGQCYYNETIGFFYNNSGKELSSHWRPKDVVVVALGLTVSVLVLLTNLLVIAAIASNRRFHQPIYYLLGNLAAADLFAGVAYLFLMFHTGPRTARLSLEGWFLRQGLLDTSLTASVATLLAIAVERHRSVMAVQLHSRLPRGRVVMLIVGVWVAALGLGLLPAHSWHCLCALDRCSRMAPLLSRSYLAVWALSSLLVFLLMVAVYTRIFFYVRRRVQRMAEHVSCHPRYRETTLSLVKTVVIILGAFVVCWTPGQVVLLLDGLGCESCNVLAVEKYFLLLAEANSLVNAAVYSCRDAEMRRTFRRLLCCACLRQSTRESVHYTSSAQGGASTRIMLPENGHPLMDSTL

For `COC(=O)Nc1nc(C)c(S(=O)(=O)N2CCN(C[C@H](C)Nc3ncnc4c(-c5cccc(CN6CCN(C)CC6)c5)cccc34)CC2)s1` [Example 24, methyl N-[4-methyl-5-({4-[(2S)-2-[(8-{3-[(4-methylpiperazin-1-yl)methyl]phenyl}quinazolin-4-yl)amino]propyl]piperazin-1-yl}sulfonyl)-1,3-thiazol-2-yl]carbamate], the half-maximal inhibitory concentration (IC50) was below 0.01 µM.

For `COC(=O)Nc1nc(C)c(S(=O)(=O)N2CCN(C[C@H](C)Nc3ncnc4c(-c5cncc(CN6CCCC6)c5)cccc34)CC2)s1` [Example 25, methyl N-[4-methyl-5-({4-[(2S)-2-[(8-{5-[(pyrrolidin-1-yl)methyl]pyridin-3-yl}quinazolin-4-yl)amino]propyl]piperazin-1-yl}sulfonyl)-1,3-thiazol-2-yl]carbamate], the IC50 is below 0.01 µM.

As for `COC(=O)Nc1nc(C)c(S(=O)(=O)N2CCN(C[C@H](C)Nc3ncnc4c(-c5ccc(N(C)C)nc5)cccc34)CC2)s1` [Example 26, methyl N-[5-({4-[(2S)-2-({8-[6-(dimethylamino)pyridin-3-yl]quinazolin-4-yl}amino)propyl]piperazin-1-yl}sulfonyl)-4-methyl-1,3-thiazol-2-yl]carbamate], the half-inhibitory concentration (IC50) was below 0.01 µM.

Turning to `COC(=O)Nc1nc(C)c(S(=O)(=O)N2CCN(C[C@H](C)Nc3ncnc4c(-c5c(C)n[nH]c5C)cccc34)CC2)s1` [Example 27, methyl N-[5-({4-[(2S)-2-{[8-(3,5-dimethyl-1H-pyrazol-4-yl)quinazolin-4-yl]amino}propyl]piperazin-1-yl}sulfonyl)-4-methyl-1,3-thiazol-2-yl]carbamate], the IC50 is below 0.01 µM.

For `COC(=O)Nc1nc(C)c(S(=O)(=O)N2CCN(C[C@H](C)Nc3ncnc4c(-c5ccc(C)nc5)cccc34)CC2)s1` [Example 28, methyl N-[4-methyl-5-({4-[(2S)-2-{[8-(6-methylpyridin-3-yl)quinazolin-4-yl]amino}propyl]piperazin-1-yl}sulfonyl)-1,3-thiazol-2-yl]carbamate], the IC50 was below 0.01 µM.

As to `COC(=O)Nc1nc(C)c(S(=O)(=O)N2CCN(C[C@H](C)Nc3ncnc4c(-c5ccccn5)cccc34)CC2)s1` [Example 29, methyl N-[4-methyl-5-({4-[(2S)-2-{[8-(pyridin-2-yl)quinazolin-4-yl]amino}propyl]piperazin-1-yl}sulfonyl)-1,3-thiazol-2-yl]carbamate], the half-inhibitory concentration (IC50) is below 0.01 µM.

On to `COC(=O)Nc1nc(C)c(S(=O)(=O)N2CCN(C[C@H](C)Nc3ncnc4c(-c5cn(C)nc5C(F)(F)F)cccc34)CC2)s1` [Example 30, methyl N-[4-methyl-5-({4-[(2S)-2-({8-[1-methyl-3-(trifluoromethyl)-1H-pyrazol-4-yl]quinazolin-4-yl}amino)propyl]piperazin-1-yl}sulfonyl)-1,3-thiazol-2-yl]carbamate], for which the IC50 is below 0.01 µM.

With `C[C@@H](CN1CCN(S(=O)(=O)c2ccc(Cl)c(Cl)c2)CC1)Nc1ncnc2c(-c3cccnc3)cccc12` [Example 31, N-[(2S)-1-[4-(3,4-dichlorobenzenesulfonyl)piperazin-1-yl]propan-2-yl]-8-(pyridin-3-yl)quinazolin-4-amine], the IC50 was below 0.01 µM.

Take `CC(=O)Nc1nc(C)c(S(=O)(=O)N2CCN(C[C@H](C)Nc3ncnc4c(-c5cccnc5)cccc34)CC2)s1` [Example 32, N-[4-methyl-5-({4-[(2S)-2-{[8-(pyridin-3-yl)quinazolin-4-yl]amino}propyl]piperazin-1-yl}sulfonyl)-1,3-thiazol-2-yl]acetamide]: the 50% inhibitory concentration (IC50) is below 0.01 µM.

For `Cc1cc(C(=O)Nc2nc(C)c(S(=O)(=O)N3CCN(C[C@H](C)Nc4ncnc5c(-c6cccnc6)cccc45)CC3)s2)no1` [Example 33, 5-methyl-N-[4-methyl-5-({4-[(2S)-2-{[8-(pyridin-3-yl)quinazolin-4-yl]amino}propyl]piperazin-1-yl}sulfonyl)-1,3-thiazol-2-yl]-1,2-oxazole-3-carboxamide], the IC50 was below 0.01 µM.

On to `COC(=O)Nc1nc(C)c(S(=O)(=O)N2CCN(C[C@H](C)Nc3ncnc4c(-c5cnc(C)nc5)cccc34)CC2)s1` [Example 34, methyl N-[4-methyl-5-({4-[(2S)-2-{[8-(2-methylpyrimidin-5-yl)quinazolin-4-yl]amino}propyl]piperazin-1-yl}sulfonyl)-1,3-thiazol-2-yl]carbamate], for which the IC50 was in the range of 0.01 to 0.1 µM.

Turning to `COC(=O)Nc1nc(C)c(S(=O)(=O)N2CCN(C[C@H](C)Nc3ncnc4c(-c5cccc(N6CCN(C)CC6)c5)cccc34)CC2)s1` [Example 35, methyl N-[4-methyl-5-({4-[(2S)-2-({8-[3-(4-methylpiperazin-1-yl)phenyl]quinazolin-4-yl}amino)propyl]piperazin-1-yl}sulfonyl)-1,3-thiazol-2-yl]carbamate], the half-maximal inhibitory concentration (IC50) was below 0.01 µM.

As for `COC(=O)Nc1nc(C)c(S(=O)(=O)N2CCN(C[C@H](C)Nc3ncnc4c(-c5ccc(N6CCN(C)CC6)cc5)cccc34)CC2)s1` [Example 36, methyl N-[4-methyl-5-({4-[(2S)-2-({8-[4-(4-methylpiperazin-1-yl)phenyl]quinazolin-4-yl}amino)propyl]piperazin-1-yl}sulfonyl)-1,3-thiazol-2-yl]carbamate], the IC50 was below 0.01 µM.

For `CC(=O)Nc1ncc(S(=O)(=O)N2CCN(C[C@H](C)Nc3ncnc4c(-c5cccnc5)cccc34)CC2)s1` [Example 37, N-[5-({4-[(2S)-2-{[8-(pyridin-3-yl)quinazolin-4-yl]amino}propyl]piperazin-1-yl}sulfonyl)-1,3-thiazol-2-yl]acetamide], the IC50 was below 0.01 µM.

Turning to `C[C@@H](CN1CCN(S(=O)(=O)c2ccc3[nH]c(=O)sc3c2)CC1)Nc1ncnc2c(-c3cccnc3)cccc12` [Example 38, 6-({4-[(2S)-2-{[8-(pyridin-3-yl)quinazolin-4-yl]amino}propyl]piperazin-1-yl}sulfonyl)-2,3-dihydro-1,3-benzothiazol-2-one], the IC50 was below 0.01 µM.

For the compound `Cc1nc(NCCN(C)C)sc1S(=O)(=O)N1CCN(C[C@H](C)Nc2ncnc3c(-c4c(C)n[nH]c4C)cccc23)CC1` [Example 39, 8-(3,5-dimethyl-1H-pyrazol-4-yl)-N-[(2S)-1-{4-[(2-{[2-(dimethylamino)ethyl]amino}-4-methyl-1,3-thiazol-5-yl)sulfonyl]piperazin-1-yl}propan-2-yl]quinazolin-4-amine], the IC50 lay in the range of 0.01 to 0.1 µM.

Take `COC(=O)Nc1nc(C)c(S(=O)(=O)N2CCN(C[C@H](C)Nc3ncnc4c(-c5cncnc5)cccc34)CC2)s1` [Example 40, methyl N-[4-methyl-5-({4-[(2S)-2-{[8-(pyrimidin-5-yl)quinazolin-4-yl]amino}propyl]piperazin-1-yl}sulfonyl)-1,3-thiazol-2-yl]carbamate]: the half-maximal inhibitory concentration (IC50) was below 0.01 µM.

Turning to `COC(=O)Nc1nc(C)c(S(=O)(=O)N2CCN(C[C@H](C)Nc3ncnc4c(C5CC5)cccc34)CC2)s1` [Example 41, methyl N-[5-({4-[(2S)-2-[(8-cyclopropylquinazolin-4-yl)amino]propyl]piperazin-1-yl}sulfonyl)-4-methyl-1,3-thiazol-2-yl]carbamate], the IC50 fell in the range of 0.01 to 0.1 µM.

As for `CC(=O)Nc1cc(F)c(S(=O)(=O)N2CCN(C[C@H](C)Nc3ncnc4c(-c5cccnc5)cccc34)CC2)cc1C` [Example 42, N-[5-fluoro-2-methyl-4-({4-[(2S)-2-{[8-(pyridin-3-yl)quinazolin-4-yl]amino}propyl]piperazin-1-yl}sulfonyl)phenyl]acetamide], the 50% inhibitory concentration (IC50) fell in the range of 0.01 to 0.1 µM.

With `CC(=O)N1CCc2cc(S(=O)(=O)N3CCN(C[C@H](C)Nc4ncnc5c(-c6cccnc6)cccc45)CC3)ccc21` [Example 43, 1-[5-({4-[(2S)-2-{[8-(pyridin-3-yl)quinazolin-4-yl]amino}propyl]piperazin-1-yl}sulfonyl)-2,3-dihydro-1H-indol-1-yl]ethan-1-one], the IC50 is below 0.01 µM.

As for `COC(=O)Nc1nc(C)c(S(=O)(=O)N2CCN(C[C@H](C)Nc3ncnc4c(-c5ccnc(N6CCN(C)CC6)c5)cccc34)CC2)s1` [Example 44, methyl N-[4-methyl-5-({4-[(2S)-2-({8-[2-(4-methylpiperazin-1-yl)pyridin-4-yl]quinazolin-4-yl}amino)propyl]piperazin-1-yl}sulfonyl)-1,3-thiazol-2-yl]carbamate], the IC50 is below 0.01 µM.

As to `C[C@@H](CN1CCN(S(=O)(=O)c2ccc3[nH]c(=O)sc3c2)CC1)Nc1ncnc2c(-c3cccc(CN(C)C)c3)cccc12` [Example 45, 6-({4-[(2S)-2-[(8-{3-[(dimethylamino)methyl]phenyl}quinazolin-4-yl)amino]propyl]piperazin-1-yl}sulfonyl)-2,3-dihydro-1,3-benzothiazol-2-one], the concentration for half-maximal inhibition (IC50) is below 0.01 µM.
